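Test compounds were applied to cells in 96-well plates for 48 hours at 5 doses. Abbreviation: GI50, concentration required for 50% inhibition of growth.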 Activity calls are given as the source filed them. Cut-off read from the data, not from the text of the source: active = GI50 up to about 1.1 µM and inactive = higher.
How the values were obtained:
Experiment in all cases: growth of human tumour cells (NCI), 48 h
786-0 = test system: 786-0
CAKI-1 = test system: CAKI-1
HCT-116 = test system: HCT-116
HOP-62 = test system: HOP-62
HOP-92 = test system: HOP-92
Hs-578T = test system: Hs-578T
MDA-MB-231 = test system: MDA-MB-231
MOLT-4 = test system: MOLT-4
NCI-H23 = test system: NCI-H23
OVCAR-3 = test system: OVCAR-3
SF-295 = test system: SF-295
SK-MEL-28 = test system: SK-MEL-28
SN12C = test system: SN12C
SNB-19 = test system: SNB-19
TK-10 = test system: TK-10
U-251 = test system: U-251
UO-31 = test system: UO-31
SK-OV-3 = test system: SK-OV-3
NCI-H226 = test system: NCI-H226

Compound	GI50 (786-0)	GI50 (CAKI-1)	GI50 (HCT-116)	GI50 (HOP-62)	GI50 (HOP-92)	GI50 (Hs-578T)	GI50 (MDA-MB-231)	GI50 (MOLT-4)	GI50 (NCI-H23)	GI50 (OVCAR-3)	GI50 (SF-295)	GI50 (SK-MEL-28)	GI50 (SN12C)	GI50 (SNB-19)	GI50 (TK-10)	GI50 (U-251)	GI50 (UO-31)	GI50 (SK-OV-3)	GI50 (NCI-H226)
O=C1/C(=C/c2ccc(OC(=O)c3ccccc3)cc2)CCC/C1=C\c1ccc(OC(=O)c2ccccc2)cc1	> 100 µM (inactive)	> 100 µM (inactive)	> 100 µM (inactive)	> 100 µM (inactive)	> 100 µM (inactive)	> 100 µM (inactive)	> 100 µM (inactive)	> 100 µM (inactive)	> 100 µM (inactive)	> 100 µM (inactive)	> 100 µM (inactive)	> 100 µM (inactive)	> 100 µM (inactive)	> 100 µM (inactive)	> 100 µM (inactive)	> 100 µM (inactive)	> 100 µM (inactive)	–	–
Cc1cc2nc3c(C)c4ccccc4c(C)n3c2cc1C	1.24 µM (inactive)	2.94 µM (inactive)	1.01 µM (active)	2.19 µM (inactive)	2.09 µM (inactive)	5.56 µM (inactive)	1.62 µM (inactive)	2.39 µM (inactive)	2.67 µM (inactive)	1.95 µM (inactive)	2.59 µM (inactive)	3.27 µM (inactive)	2.07 µM (inactive)	4.02 µM (inactive)	5.27 µM (inactive)	3.33 µM (inactive)	–	7.06 µM (inactive)	–
CC(=O)Nn1cnc(C(=N)C#N)c1N	> 100 µM (inactive)	> 100 µM (inactive)	> 100 µM (inactive)	> 100 µM (inactive)	–	> 100 µM (inactive)	> 100 µM (inactive)	> 100 µM (inactive)	> 100 µM (inactive)	> 100 µM (inactive)	> 100 µM (inactive)	> 100 µM (inactive)	> 100 µM (inactive)	> 100 µM (inactive)	> 100 µM (inactive)	> 100 µM (inactive)	> 100 µM (inactive)	> 100 µM (inactive)	> 100 µM (inactive)
COc1cc(Cc2nccc3cc(OC)c(OC)cc23)c(/N=N/N(C)C)cc1OC	4 µM (inactive)	5.45 µM (inactive)	5.08 µM (inactive)	23.7 µM (inactive)	–	18.4 µM (inactive)	14.4 µM (inactive)	5.27 µM (inactive)	19.3 µM (inactive)	15.5 µM (inactive)	19.9 µM (inactive)	11.2 µM (inactive)	14.3 µM (inactive)	30.6 µM (inactive)	20.4 µM (inactive)	19.1 µM (inactive)	10 µM (inactive)	18.5 µM (inactive)	20.4 µM (inactive)
S=C1CC(c2ccccc2)Sc2cc(Cl)ccc2N1 (stereo not given)	5.42 µM (inactive)	7.71 µM (inactive)	3.03 µM (inactive)	5.61 µM (inactive)	–	8.91 µM (inactive)	7.57 µM (inactive)	1.51 µM (inactive)	5.41 µM (inactive)	2.49 µM (inactive)	3.45 µM (inactive)	8.73 µM (inactive)	8.77 µM (inactive)	10.8 µM (inactive)	16.2 µM (inactive)	4.26 µM (inactive)	44.5 µM (inactive)	7.35 µM (inactive)	14.2 µM (inactive)
CCOC(=O)C(Cc1ccc(N(CCCl)CCCl)cc1)NC(=O)C(Cc1ccccc1)NC=O (stereo not given)	0.116 µM (active)	0.0385 µM (active)	0.286 µM (active)	0.274 µM (active)	0.126 µM (active)	0.388 µM (active)	0.262 µM (active)	0.0289 µM (active)	0.00906 µM (active)	0.147 µM (active)	0.257 µM (active)	–	0.156 µM (active)	0.421 µM (active)	0.157 µM (active)	0.205 µM (active)	0.0689 µM (active)	0.475 µM (active)	–

Reference: ChEMBL document CHEMBL1201862, “PubChem BioAssay data set” (2004)
